Where “and” joins values, the source holds several entries; their conditions need not be identical. Identical values can stand only once. Like-named read-outs stand apart in the source and are kept apart here. Marks after values point to notes of the source that are not given here.
Assays:
[1] = system: lipopolysaccharide-induced septic shock; type: in vivo, mouse
[2] = system: formalin-induced hind paw licking; type: in vivo, mouse; conditions: for Hind paw licking time (Seconds) (Mean ± SEM): IP, mean (X)
[3] = system: developing type II collagen arthritis
[4] = system: acetic acid-induced writhing responses; conditions: mouse, in vivo
[5] = system: LPS-induced neutrophilia in lung tissues; conditions: mouse, in vivo
[6] = system: reaction of host lymphocytes to alloantigen; conditions: mouse, in vivo, 10 mg/kg
[7] = system: MRMT-1 tumor-induced bone osteolysis; conditions: rat, in vivo
[8] = sodium meta arsenite study, oral QD, 0.075 mg/kg
[9] = arsenic trioxide study, IP 10 mg/kg
[10] = arsenic trioxide study, IP, QD, 10 mg/kg

CC(=O)OCC(=O)[C@@]1(O)[C@H](C)C[C@H]2[C@@H]3CCC4=CC(=O)C=C[C@]4(C)[C@@]3(F)[C@@H](O)C[C@@]21C [Dexamehasone 21-acetate, reference compound]
% Protection ([1]; PO 3 mg/kg, mortality over 3 days after LPS 30 mg/kg IP): (75) %

CN1CC[C@]23c4c5ccc(O)c4O[C@H]2[C@@H](O)C=C[C@H]3[C@H]1C5 [Morphine, morphine, reference compound]
analgesic effect ([2]; mouse, in vivo): associated with analgesic effect | analgesic effect ([2]; mouse, in vivo, po, 30 mg/kg): significant analgesic effect

CN(Cc1cnc2nc(N)nc(N)c2n1)c1ccc(C(=O)N[C@@H](CCC(=O)O)C(=O)O)cc1 [MTX, methotrexate, reference compound]
Relative spleen weights, reduction as compared to disease control rats ([3]; rat, in vivo, po, 0.075 mg/kg): 10% | inhibition of ankle diameter ([3]; sodium meta arsenite study, oral 0.075 mg/kg, days 10-17): Significant inhibition | inhibition of body weight loss (due to arthritis) ([3]; sodium meta arsenite study, oral QD days 0-16, 0.075 mg/kg): 96% | Inhibition of ankle diameter (AUC) [3, 8]: 97% | Inhibition of final paw weight [3, 8]: 95% | inhibition of ankle histopathology parameters [3, 8]: 97% | inhibition of knee histopathologic parameters [3, 8]: 100% | Inhibition of body weight loss from day zero (adjuvant arthritis; PO 0.1 mg/kg): 91% | Relative liver weights, reduction toward normal (adjuvant arthritis; PO 0.1 mg/kg): 100% | inhibition of ankle diameter AUC increase (adjuvant arthritis; PO 0.1 mg/kg): 96% | inhibition of ankle measurements (dorsal to ventral) (adjuvant arthritis; PO 0.1 mg/kg): 97% | inhibition of final paw weight increase due to arthritis (adjuvant arthritis; PO 0.1 mg/kg): 99% | inhibition of histopathologic bone resorption (adjuvant arthritis; PO 0.1 mg/kg): 100% | inhibition of histopathologic inflammation (adjuvant arthritis; PO 0.1 mg/kg): 99% | inhibition of lymphoid atrophy (adjuvant arthritis; PO 0.1 mg/kg): 50% | inhibition of splenic inflammation (adjuvant arthritis; PO 0.1 mg/kg): 100% | inhibition of ankle diameter increase (adjuvant arthritis; PO 0.1 mg/kg, significant days 8-14): Significant inhibition | Mean body weight decrease over time (due to arthritis) (adjuvant arthritis; PO 0.1 mg/kg, significant days 10-14): inhibited | Relative spleen weights, reduction toward normal (adjuvant arthritis; PO 0.01): 77%

arsenic trioxide (As2O3)
Relative thymus weights ([3]; arsenic trioxide study, 10 mg/kg): reduced below arthritic controls | Relative liver weights, increase above arthritic controls ([3]; arsenic trioxide study, IP 1 mg/kg): 6% | Relative liver weights, increase above arthritic controls [3, 9]: 10% | Relative spleen weights, reduction as compared to disease control rats [3, 9]: 21% | inhibition of decrease in ankle diameter ([3]; arsenic trioxide study, IP 10 mg/kg, days 10-17): Significant inhibition | Inhibition of ankle diameter AUC [3, 10]: 80% | Inhibition of final paw weight [3, 10]: 71% | inhibition of body weight loss [3, 10]: 55% | Hind paw licking time (Seconds) (Mean ± SEM) ([2]; 1 mg/kg, 0-5 minutes after formalin): 74.6 s | Hind paw licking time (Seconds) (Mean ± SEM) ([2]; 1 mg/kg, 5-10 minutes after formalin): 2.6* Seconds | Hind paw licking time (Seconds) (Mean ± SEM) ([2]; 1 mg/kg, 10-15 minutes after formalin): 15.6* Seconds | Hind paw licking time (Seconds) (Mean ± SEM) ([2]; 1 mg/kg, 15-20 minutes after formalin): 40.0 s | Hind paw licking time (Seconds) (Mean ± SEM) ([2]; 1 mg/kg, 20-25 minutes after formalin): 57.1 s | Hind paw licking time (Seconds) (Mean ± SEM) ([2]; 1 mg/kg, 25-30 minutes after formalin): 53.5 s | Hind paw licking time (Seconds) (Mean ± SEM) ([2]; 1 mg/kg, 30-35 minutes after formalin): 30.0 s | Hind paw licking time (Seconds) (Mean ± SEM) ([2]; 10 mg/kg, 0-5 minutes after formalin): 9.0* Seconds | Hind paw licking time (Seconds) (Mean ± SEM) ([2]; 10 mg/kg, 5-10 minutes after formalin): 0.3* Seconds | Hind paw licking time (Seconds) (Mean ± SEM) ([2]; 10 mg/kg, 10-15 minutes after formalin): 0.0* Seconds | Hind paw licking time (Seconds) (Mean ± SEM) ([2]; 10 mg/kg, 15-20 minutes after formalin): 0.0* Seconds | Hind paw licking time (Seconds) (Mean ± SEM) ([2]; 10 mg/kg, 20-25 minutes after formalin): 0.0* Seconds | Hind paw licking time (Seconds) (Mean ± SEM) ([2]; 10 mg/kg, 25-30 minutes after formalin): 0.0* Seconds | Hind paw licking time (Seconds) (Mean ± SEM) ([2]; 10 mg/kg, 30-35 minutes after formalin): 0.0 s | inhibition of the licking response to formalin challenge ([2]; intraperitoneal, 10 mg/kg, intervals 0-5, 5-10, 10-15, 15-20, 20-25 and 25-30 minutes): significant inhibition | response (inhibition of licking) to formalin challenge ([2]; intraperitoneal, lower dose 1 mg/kg): limited to the intervals of 5-10 and 10-15 minutes after challenge

O=[As][O-].[Na+] [sodium meta arsenite, sodium meta arsenite (NaAsO2)]
IL-1β secretion ([1]; mouse, in vivo): significant inhibition | IL-6 secretion ([1]; mouse, in vivo): inhibition | protection against LPS-induced septic shock ([1]; mouse, in vivo): moderate protection | secretion of KC ([1]; mouse, in vivo, po): no effect | secretion of MCP-1 ([1]; mouse, in vivo, po): no effect | secretion of TNF-α ([1]; mouse, in vivo, po): no effect | analgesic effect [4]: no analgesic effect | analgesic activity ([4]; po, 10 mg/kg): significant analgesic activity | number of writhing responses (average) ([4]; po, 10 mg/kg): 7 writhing events | inhibition of body weight loss (due to arthritis) ([3]; rat, in vivo): 100% | Relative thymus weights, reduction as compared to disease controls ([3]; rat, in vivo, 1 mg/kg): 20% | Calculated ED50 value, ankle diameter (AUC) ([3]; rat, in vivo, po): 8.499 mg/kg | Calculated ED50 value, ankle histopathology ([3]; rat, in vivo, po): 7.080 mg/kg | Calculated ED50 value, body weight loss ([3]; rat, in vivo, po): 1.929 mg/kg | Calculated ED50 value, final paw weight ([3]; rat, in vivo, po): 7.116 mg/kg | Calculated ED50 value, knee histopathology ([3]; rat, in vivo, po): 7.924 mg/kg | Inhibition of ankle diameter (AUC) ([3]; rat, in vivo, po, 10 mg/kg): 73% | Inhibition of ankle diameter AUC ([3]; rat, in vivo, po, 10 mg/kg): 66% | Inhibition of final paw weight ([3]; rat, in vivo, po, 10 mg/kg): 83% and 69% | Relative liver weights, increase above arthritic controls ([3]; rat, in vivo, po, 10 mg/kg): 14% | Relative liver weights, increase over disease controls ([3]; rat, in vivo, po, 10 mg/kg): 17% | Relative spleen weights, reduction as compared to disease control rats ([3]; rat, in vivo, po, 10 mg/kg): 10% | inhibition of ankle diameter ([3]; rat, in vivo, po, 10 mg/kg): Significant inhibition | inhibition of ankle histopathology parameters ([3]; rat, in vivo, po, 10 mg/kg): 85% | inhibition of body weight loss ([3]; rat, in vivo, po, 10 mg/kg): 85% | inhibition of decrease in ankle diameter ([3]; rat, in vivo, po, 10 mg/kg): Significant inhibition | inhibition of knee histopathologic parameters ([3]; rat, in vivo, po, 10 mg/kg): 87% | KC in lavage fluid [5]: significant reduction | TNF-α in lavage fluid [5]: significant suppression | cell counts in lavage fluid [5]: not associated with any significant changes | monocyte count in lavage fluid [5]: significant decrease | neutrophil (differential) count in lavage fluid [5]: significant decrease | secretion of 1L-1β, Il-6 or MCP-1 observed in brachoaveolar lavage fluid [5]: At no concentration | white blood cell (total) count in lavage fluid [5]: significant decrease | immunosuppressive effect in animals treated with alloantigen [6]: slight immunosuppressive effect | Inhibition of body weight loss from day 0 (adjuvant arthritis; rat, in vivo): 2-14% | Relative liver weights, reduction (adjuvant arthritis; rat, in vivo): 7-29% | tolerability (adjuvant arthritis; rat, in vivo): well tolerated | Calculated ED50, ankle diameter AUC (adjuvant arthritis; rat, in vivo, po): 10.62 mg/kg | Calculated ED50, ankle measurements (dorsal to ventral) (adjuvant arthritis; rat, in vivo, po): 13.65 mg/kg | Calculated ED50, final paw weight (adjuvant arthritis; rat, in vivo, po): 1421 mg/kg | Calculated ED50, histopathologic bone resorption (adjuvant arthritis; rat, in vivo, po): 9.243 mg/kg | Calculated ED50, histopathologic inflammation (adjuvant arthritis; rat, in vivo, po): 17.25 mg/kg | inhibition of histopathologic inflammation (adjuvant arthritis; rat, in vivo, po): 76% | inhibition of lymphoid atrophy (adjuvant arthritis; rat, in vivo, po): 29% | inhibition of splenic inflammation (adjuvant arthritis; rat, in vivo, po): 32% | inhibition of ankle diameter increase (adjuvant arthritis; rat, in vivo, po, 3 mg/kg): Significant inhibition | Relative spleen weights, reduction toward normal (adjuvant arthritis; rat, in vivo, po, 10 mg/kg): 50% | inhibition of ankle diameter AUC increase (adjuvant arthritis; rat, in vivo, po, 10 mg/kg): 46% | inhibition of ankle diameter increase (adjuvant arthritis; rat, in vivo, po, 10 mg/kg): Significant inhibition | inhibition of ankle measurements (dorsal to ventral) (adjuvant arthritis; rat, in vivo, po, 10 mg/kg): 36% | inhibition of final paw weight increase due to arthritis (adjuvant arthritis; rat, in vivo, po, 10 mg/kg): 28% | inhibition of histopathologic bone resorption (adjuvant arthritis; rat, in vivo, po, 10 mg/kg): 59% | inhibition of histopathologic inflammation (adjuvant arthritis; rat, in vivo, po, 10 mg/kg): 24% | Mean body weight loss over time (adjuvant arthritis; rat, in vivo, po, 30 mg/kg): significantly increased | Relative spleen weights, reduction toward normal (adjuvant arthritis; rat, in vivo, po, 30 mg/kg): 91% | inhibition of ankle diameter AUC increase (adjuvant arthritis; rat, in vivo, po, 30 mg/kg): 83% | inhibition of ankle diameter increase (adjuvant arthritis; rat, in vivo, po, 30 mg/kg): Significant inhibition | inhibition of ankle measurements (dorsal to ventral) (adjuvant arthritis; rat, in vivo, po, 30 mg/kg): 81% | inhibition of final paw weight increase due to arthritis (adjuvant arthritis; rat, in vivo, po, 30 mg/kg): 83% | inhibition of histopathologic bone resorption (adjuvant arthritis; rat, in vivo, po, 30 mg/kg): 81% | inhibition of lymphoid atrophy (adjuvant arthritis; rat, in vivo, po, 30 mg/kg): 39% | inhibition of splenic inflammation (adjuvant arthritis; rat, in vivo, po, 30 mg/kg): 89% | toxicity (based on body weight changes) (adjuvant arthritis; rat, in vivo, po, 30 mg/kg): toxic | analgesic activity ([2]; mouse, in vivo): significant analgesic activity | ameliorating tumor-induced osteoclasts and osteolysis [7]: strong positive trend | improving the various aspects of cancer-induced bone damage (histopathology) [7]: positive trend
